Reference: BindingDB's records for doi:10.1021/ml300038t (2012)

Target: T1, 4,4'-diapophytoene synthase (Staphylococcus aureus, UniProt A9JQL9)
T1 sequence (A9JQL9 whole entry): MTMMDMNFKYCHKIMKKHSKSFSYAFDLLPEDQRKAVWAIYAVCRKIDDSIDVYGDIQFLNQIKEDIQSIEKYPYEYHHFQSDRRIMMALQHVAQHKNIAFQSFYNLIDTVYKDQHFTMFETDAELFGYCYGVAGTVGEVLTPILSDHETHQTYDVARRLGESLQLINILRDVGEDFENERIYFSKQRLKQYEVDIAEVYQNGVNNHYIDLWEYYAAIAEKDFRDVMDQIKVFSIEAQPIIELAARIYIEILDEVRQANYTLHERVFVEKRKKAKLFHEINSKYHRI
Assay: Inhibition of Staphylococcus aureus His6-tagged CrtM expressed in Escherichia coli BL21(DE3) using Farnesyl pyrophosphate as substrate incubated for 30 mins prior to substrate addition by continuous spectrophotometric assay

| IC50 [µM] | Structure (SMILES) |
| --- | --- |
| > 300 | CCCCCCOc1cccc(CCCNC(=O)CC(=O)C(=O)O)c1 |
| > 300 | CCCCCCCCOc1ccc(C(=O)CC(=O)C(=O)O)cc1 |
